Molecular target: T1, GST-tagged ROR gamma ligand binding domain (LBD) (Homo sapiens, UniProt P51449)
T1 construct: purchased Invitrogen
T1 sequence (P51449 269-508 limits assumed): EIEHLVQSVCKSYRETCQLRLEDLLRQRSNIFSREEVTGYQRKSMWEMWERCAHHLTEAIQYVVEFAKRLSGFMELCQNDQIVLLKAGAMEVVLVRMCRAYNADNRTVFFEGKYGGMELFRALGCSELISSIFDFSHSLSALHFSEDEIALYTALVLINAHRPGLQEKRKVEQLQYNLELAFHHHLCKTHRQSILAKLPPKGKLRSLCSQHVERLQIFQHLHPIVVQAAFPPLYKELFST
Assay: TR-FRET assay for ROR gamma (LanthaScreen co-activator peptide recruitment)
Type: biochemical
Conditions: for IC50: class symbols, from dose response curve; for inhibition at 1 µM: compound 1 μM; for inhibition at 1 µM / inhibition at 10 µM: TR-FRET ratio 520/495, percent of control; for inhibition at 10 µM: compound 10 μM
Summary of the method: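 Antagonist mode: 10 nM GST-RORγ LBD pre-incubated with compound 1 h at 22 °C in 25 mM HEPES pH 7.4, 100 mM NaCl, 5 mM DTT, 0.01% BSA, 4% DMSO final. Then 300 nM fluorescein-D22 co-activator peptide plus 10 nM Tb-anti-GST added, 1 h at room temperature. IC50 by nonlinear regression of the 520/495 TR-FRET ratio as percent of no-compound control.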

| Structure (SMILES) | IC50 [nM] | inhibition at 1 µM [%] | inhibition at 10 µM [%] |
| --- | --- | --- | --- |
| CCn1c(C(C)(C)Oc2ccc(Cl)cc2F)nc2cc(NC(=O)Cc3ccc(S(=O)(=O)CC)cc3)ccc21 [Example 86, N-{2-[2-(4-Chloro-2-fluorophenoxy)propan-2-yl]-1-ethyl-1H-benzimidazol-5-yl}-2-[4-(ethylsulfonyl)phenyl]acetamide] | < 50 | 92.8 | 93.8 |
| CCn1c(C(C)(C)Oc2ccc(Cl)c(F)c2)nc2cc(NC(=O)Cc3ccc(S(=O)(=O)CC)cc3)ccc21 [Example 87, N-{2-[1-(4-Chloro-3-fluoro-phenoxy)-1-methyl-ethyl]-1-ethyl-1H-benzoimidazol-5-yl}-2-(4-ethanesulfonyl-phenyl)-acetamide] | < 50 | 90.8 | 94.8 |
| CCn1c(C(C)(C)Oc2ccc(F)cc2F)nc2cc(NC(=O)Cc3ccc(S(=O)(=O)CC)cc3)ccc21 [Example 88, N-{2-[1-(2,4-Difluoro-phenoxy)-1-methyl-ethyl]-1-ethyl-1H-benzoimidazol-5-yl}-2-(4-ethanesulfonyl-phenyl)-acetamide] | < 50 | 86.2 | 96.1 |
| CCn1c(C(C)(C)Oc2ccc(F)c(F)c2)nc2cc(NC(=O)Cc3ccc(S(=O)(=O)CC)cc3)ccc21 [Example 89, N-{2-[1-(3,4-Difluoro-phenoxy)-1-methyl-ethyl]-1-ethyl-1H-benzoimidazol-5-yl}-2-(4-ethanesulfonyl-phenyl)-acetamide] | < 50 | 86.5 | 95.5 |
| CCn1c(C(C)(C)Oc2c(F)cc(F)cc2F)nc2cc(NC(=O)Cc3ccc(S(=O)(=O)CC)cc3)ccc21 [Example 90, 2-(4-Ethanesulfonyl-phenyl)-N-{1-ethyl-2-[1-methyl-1-(2,4,6-trifluoro-phenoxy)-ethyl]-1H-benzoimidazol-5-yl}-acetamide] | < 50 | 87.3 | 88.8 |
| CCn1c(C(C)(C)Oc2ccc(F)c(F)c2F)nc2cc(NC(=O)Cc3ccc(S(=O)(=O)CC)cc3)ccc21 [Example 91, 2-(4-Ethanesulfonyl-phenyl)-N-{1-ethyl-2-[1-methyl-1-(2,3,4-trifluoro-phenoxy)-ethyl]-1H-benzoimidazol-5-yl}-acetamide] | < 50 | 90 | 90.6 |
| CCn1c(C(C)(C)Oc2cc(F)c(F)cc2F)nc2cc(NC(=O)Cc3ccc(S(=O)(=O)CC)cc3)ccc21 [Example 92, 2-(4-Ethanesulfonyl-phenyl)-N-{1-ethyl-2-[1-methyl-1-(2,4,5-trifluoro-phenoxy)-ethyl]-1H-benzoimidazol-5-yl}-acetamide] | < 50 | 91.5 | 93.1 |
| CCn1c(C(C)(C)Oc2ccc(Cl)cc2)nc2cc(NC(=O)Cc3ccc(S(=O)(=O)CC)cc3)ccc21 [Example 93, N-{2-[1-(4-Chloro-phenoxy)-1-methyl-ethyl]-1-ethyl-1H-benzoimidazol-5-yl}-2-(4-ethanesulfonyl-phenyl)-acetamide] | < 50 | 83.4 | 87.4 |
| CCn1c(C(C)(C)Oc2ccc(Cl)cn2)nc2cc(NC(=O)Cc3ccc(S(=O)(=O)CC)cc3)ccc21 [Example 94, N-{2-[1-(5-Chloro-pyridin-2-yloxy)-1-methyl-ethyl]-1-ethyl-1H-benzoimidazol-5-yl}-2-(4-ethanesulfonyl-phenyl)-acetamide] | > 100 | 78 | 90.1 |
| CCS(=O)(=O)c1ccc(CC(=O)Nc2ccc(OC(C)(C)c3ncc(Cl)cc3Cl)c(F)c2)cc1 [Example 95, N-{4-[1-(3,5-Dichloro-pyridin-2-yl)-1-methyl-ethoxy]-3-fluoro-phenyl}-2-(4-ethanesulfonyl-phenyl)-acetamide] | < 50 | 75.7 | 77.6 |
| CCS(=O)(=O)c1ccc(CC(=O)Nc2ccc(OC(C)(C)c3ccc(Cl)cc3Cl)c(F)c2)cc1 [Example 96, N-{4-[1-(2,4-Dichloro-phenyl)-1-methyl-ethoxy]-3-fluoro-phenyl}-2-(4-ethanesulfonyl-phenyl)-acetamide] | < 50 | 79.3 | 79.8 |
| CCS(=O)(=O)c1ccc(CC(=O)Nc2ccc(OC(C)(C)c3ccc(F)cc3Cl)c(F)c2)cc1 [Example 97, N-{4-[1-(2-Chloro-4-fluoro-phenyl)-1-methyl-ethoxy]-3-fluoro-phenyl}-2-(4-ethanesulfonyl-phenyl)-acetamide] | < 50 | 80.8 | 82.1 |
| CCS(=O)(=O)c1ccc(CC(=O)Nc2ccc(OC(C)(C)c3ccc(Cl)cc3F)c(F)c2)cc1 [Example 98, N-{4-[1-(4-Chloro-2-fluoro-phenyl)-1-methyl-ethoxy]-3-fluoro-phenyl}-2-(4-ethanesulfonyl-phenyl)-acetamide] | – | 55 | 49.6 |
| CCS(=O)(=O)c1ccc(CC(=O)Nc2ccc(OC3(c4ccc(Cl)cc4F)CC3)c(F)c2)cc1 [Example 99, N-{4-[1-(4-Chloro-2-fluoro-phenyl)-cyclopropoxy]-3-fluoro-phenyl}-2-(4-ethanesulfonyl-phenyl)-acetamide] | < 50 | 81.7 | 81.1 |
| CCS(=O)(=O)c1ccc(CC(=O)Nc2ccc(OC3(c4ccc(Cl)c(F)c4)CC3)c(F)c2)cc1 [Example 100, N-{4-[1-(4-Chloro-3-fluoro-phenyl)-cyclopropoxy]-3-fluoro-phenyl}-2-(4-ethanesulfonyl-phenyl)-acetamide] | < 50 | 79.4 | 87.2 |
| CCS(=O)(=O)c1ccc(CC(=O)Nc2ccc(OC3(c4ccc(Cl)cc4Cl)COC3)c(F)c2)cc1 [Example 101, N-{4-[3-(2,4-Dichloro-phenyl)-oxetan-3-yloxy]-3-fluoro-phenyl}-2-(4-ethanesulfonyl-phenyl)-acetamide] | < 50 | 86.6 | 82.3 |
| CCS(=O)(=O)c1ccc(CC(=O)Nc2ccc(OC3(c4ccc(Cl)c(F)c4)COC3)c(F)c2)cc1 [Example 102, N-{4-[3-(4-Chloro-3-fluoro-phenyl)-oxetan-3-yloxy]-3-fluoro-phenyl}-2-(4-ethanesulfonyl-phenyl)-acetamide] | < 50 | 81.7 | 84 |
| CCS(=O)(=O)c1ccc(CC(=O)Nc2ccc(OC3(c4ccc(Cl)c(F)c4)CCOCC3)c(F)c2)cc1 [Example 103, N-{4-[4-(4-Chloro-3-fluoro-phenyl)-tetrahydro-pyran-4-yloxy]-3-fluoro-phenyl}-2-(4-ethanesulfonyl-phenyl)-acetamide] | < 50 | 73.6 | 80.2 |
| CCS(=O)(=O)c1ccc(CC(=O)Nc2ccc(OC(C)(C)Cn3ccc4cc(Cl)ccc43)c(F)c2)cc1 [Example 104, N-{4-[2-(5-Chloro-indol-1-yl)-1,1-dimethyl-ethoxy]-3-fluoro-phenyl}-2-(4-ethanesulfonyl-phenyl)-acetamide] | 50 to 100 | 74.5 | 79.2 |
| CCn1c(C(C)(C)Oc2ccc(NC(=O)Cc3ccc(S(=O)(=O)CC)cc3)cc2F)nc2cc(Cl)ccc21 [Example 105, N-{4-[1-(5-Chloro-1-ethyl-1H-benzoimidazol-2-yl)-1-methyl-ethoxy]-3-fluoro-phenyl}-2-(4-ethanesulfonyl-phenyl)-acetamide] | < 50 | 83.6 | 84.6 |
| CCS(=O)(=O)c1ccc(CC(=O)Nc2ccc(C#CC(C)(C)Oc3ccc(Cl)c(F)c3)c(F)c2)cc1 [Example 106, N-{4-[3-(4-Chloro-3-fluoro-phenoxy)-3-methyl-but-1-ynyl]-3-fluoro-phenyl}-2-(4-ethanesulfonyl-phenyl)-acetamide] | < 50 | 81.9 | 85.9 |
| CCS(=O)(=O)c1ccc(CC(=O)Nc2ccc(OC(C)(C)c3ccc(F)cc3F)c(F)c2)cc1 [Example 107, N-{4-[1-(2,4-Difluoro-phenyl)-1-methyl-ethoxy]-3-fluoro-phenyl}-2-(4-ethanesulfonyl-phenyl)-acetamide] | – | 59 | 59.5 |
| CCS(=O)(=O)c1ccc(CC(=O)Nc2ccc(OC(C)(C)Cn3c(C)cc4cc(F)ccc43)c(F)c2)cc1 [Example 108, 2-(4-Ethanesulfonyl-phenyl)-N-{3-fluoro-4-[2-(5-fluoro-2-methyl-indol-1-yl)-1,1-dimethyl-ethoxy]-phenyl}-acetamide] | – | 9.67 | 61.4 |
| CCS(=O)(=O)c1ccc(CC(=O)Nc2cc(F)c(OC(C)(C)c3ccc(Cl)cc3Cl)c(F)c2)cc1 [Example 109, N-{4-[1-(2,4-Dichloro-phenyl)-1-methyl-ethoxy]-3,5-difluoro-phenyl}-2-(4-ethanesulfonyl-phenyl)-acetamide] | – | 16.6 | 17.2 |
| CCS(=O)(=O)c1ccc(CC(=O)Nc2cc(F)c(OC(C)(C)c3ncc(Cl)cc3Cl)c(F)c2)cc1 [Example 110, N-{4-[1-(3,5-Dichloro-pyridin-2-yl)-1-methyl-ethoxy]-3,5-difluoro-phenyl}-2-(4-ethanesulfonyl-phenyl)-acetamide] | – | 23.7 | 47.6 |

Source: US9718817B2, “Aryl and heteroaryl ether compounds as ROR gamma modulators” (Glenmark Pharmaceuticals S.A., priority 2014, dated 2017)
